Test results from PMC13376213, “Systematic discovery of motif-based interactions of the auxiliary domains of USP family deubiquitinases” (Nature Communications, 2026).
Like-named read-outs stand apart in the source and are kept apart here. Ends that are not written are not given here.

Key:
USP20 zf-UBP domain = molecular target: T1, USP20 zf-UBP domain (Homo sapiens, UniProt Q9Y2K6); test: FP-monitored affinity measurements, USP20 zf-UBP; assay type: binding; conditions: USP20_UBP; FP displacement by unlabelled peptide; read-out: KD
T1 construct: USP20_UBP; Q9Y2K6; zf-UBP; 99; 6xHis-GST (N, cleaved yes); made in house; host or cells: Escherichia coli BL21-Gold (DE3)
T1 sequence (Q9Y2K6 4-99): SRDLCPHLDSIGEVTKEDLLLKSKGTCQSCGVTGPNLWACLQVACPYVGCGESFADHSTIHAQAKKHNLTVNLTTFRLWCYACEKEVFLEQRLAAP
Method: (§3) The measurements were performed at room temperature in a non-binding black half area 96-well plate (Corning) with a total volume of 50 μL per well. […] All measurements were performed in three technical replicates. […] The saturation curves were fitted to the quadratic equation, and the displacement curves were fitted to a sigmoidal dose-response equation as described previously[68].

USP33 zf-UBP domain = molecular target: T2, USP33 zf-UBP domain (Homo sapiens, UniProt Q8TEY7); test: FP-monitored affinity measurements, USP33 zf-UBP; assay type: binding; conditions: USP33_UBP; FP displacement by unlabelled peptide; read-out: KD
T2 construct: USP33_UBP; Q8TEY7; zf-UBP; 36; 130; 6xHis-GST (N, cleaved yes); made in house; host or cells: Escherichia coli BL21-Gold (DE3)
T2 sequence (Q8TEY7 with tags, fused parts or gaps): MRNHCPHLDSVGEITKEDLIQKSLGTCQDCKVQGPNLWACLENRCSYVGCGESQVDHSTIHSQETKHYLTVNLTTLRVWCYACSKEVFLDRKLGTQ
Method: as §3

USP20 DUSP2 domain [1] = molecular target: T3, USP20 DUSP2 domain (Homo sapiens, UniProt Q9Y2K6); test: FP-monitored affinity measurements, USP20 DUSP2; assay type: binding
T3 construct: USP20_DUSP2; Q9Y2K6; DUSP2; 776; 894; 6xHis-GST (N, cleaved yes); made in house; host or cells: Escherichia coli BL21-Gold (DE3)
T3 sequence (Q9Y2K6 with tags, fused parts or gaps): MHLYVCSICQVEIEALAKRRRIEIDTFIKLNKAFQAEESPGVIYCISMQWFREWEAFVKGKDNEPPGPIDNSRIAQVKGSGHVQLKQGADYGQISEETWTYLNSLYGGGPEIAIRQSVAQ
Method: (§1) Proteins were expressed in Escherichia coli (E.coli) BL21-Gold (DE3) bacteria. The cDNAs encoding N-terminal 6-histidine-glutathione S-transferase tagged (6xHis-GST), 6xHis-tagged or GST-tagged protein domains in pETM33, pETM11, pGEX6P1 expression vectors respectively, were obtained from Genescript or kindly provided by MRC-PPU (Suppl. Data 1) The bacteria were transformed with the plasmid and grew at 37 °C in 2YT (5 g/L NaCl, 16 g/L tryptone and 10 g/L yeast extract) supplemented with Kanamycin (30 μg/mL) until reaching an OD600 of 0.7. Protein expression was induced with 0.3 mM isopropyl β-D-1 thiogalactopyranoside (IPTG) for 18 h at 18 °C while shaking. For zinc-finger domains, 50 μM of ZnSO4 was added during expression. The bacterial cultures were pelleted for 15 minutes at 4000 x g at 4 °C and stored at −20 °C until purification. The pellets were resuspended in lysis buffer (1× phosphate-buffered saline (PBS), 0.5 % Triton-X, 5 mM MgCl2, 10 μg/mL lysozyme, cOmplete^TM EDTA-free protease inhibitor cocktail (Roche), 10 μg/mL DNAseI) and incubated for 1 h shaking at 4 °C. […] The supernatant was incubated with glutathione (GSH) Sepharose (Cytiva) or Ni2+ Sepharose (Cytiva) for 1 h at 4 °C while shaking. The beads with the bound protein were washed with 1x PBS and eluted with 10 mM reduced glutathione in 50 mM Tris pH 8.0. For fluorescence polarization experiments, the proteins were not eluted from the beads, and the 6xHis-GST tag was cleaved overnight on GSH Sepharose beads at 4 °C while shaking with PreScission Protease in cleavage buffer (50 mM Tris pH 7.5, 150 mM NaCl, 1 mM DTT). The sample containing the cleaved domain was separated from the tag and protease and buffer-exchanged to 50 mM sodium phosphate buffer pH 7.4 with 1 mM DTT using a PD-10 desalting column (Cytiva). The purity and size of the proteins were analyzed by SDS-PAGE electrophoresis.
(§2) The measurements were performed at room temperature in a non-binding black half area 96-well plate (Corning) with a total volume of 50 μL per well. Peptides were obtained from GeneCust (France) with >95% purity. FITC-labeled peptides (N-terminally FITC-labeled without spacer and C-terminally amidated) were dissolved in dimethyl sulfoxide (DMSO), and unlabeled peptides (N-terminally acetylated and C-terminally amidated) were dissolved in 50 mM phosphate buffer pH 7.4. Saturation measurements were performed using a serial dilution of the protein domains in phosphate buffer (25 μL) and the addition of 10 nM FITC-labeled peptide (in phosphate buffer supplemented with 2 mM DTT) (25 μL). […] All measurements were performed in three technical replicates. The data were analyzed using GraphPad Prism version 9.2.0 for MacOS (GraphPad Software, San Diego, California USA, www.graphpad.com). The saturation curves were fitted to the quadratic equation, and the displacement curves were fitted to a sigmoidal dose-response equation as described previously.

USP33 DUSP2 domain [2] = molecular target: T4, USP33 DUSP2 domain (Homo sapiens, UniProt Q8TEY7); test: FP-monitored affinity measurements, USP33 DUSP2; assay type: binding
T4 construct: USP33_DUSP2; Q8TEY7; DUSP2; 806; 921; 6xHis-GST (N, cleaved yes); made in house; host or cells: Escherichia coli BL21-Gold (DE3)
T4 sequence (Q8TEY7 with tags, fused parts or gaps): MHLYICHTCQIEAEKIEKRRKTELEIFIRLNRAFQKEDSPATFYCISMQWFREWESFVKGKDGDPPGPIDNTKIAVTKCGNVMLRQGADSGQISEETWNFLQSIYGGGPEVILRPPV
Method: as §1, §2

FLAG-USP33 = test: IP-MS of FLAG-USP33 and variants vs empty vector; assay type: cell-based, human; conditions: IP-MS
Method: For transfection, 1x10^6 HEK293 cells were seeded in 10 cm dishes with DMEM, 10% FBS, 1% L-G (without antibiotic) medium, incubated at 37 °C, with 5 % CO2 for 24 h. Cells were transfected with a transfection mix containing […] of Opti-MEM (Thermo Fisher Scientific), 20 μL of PEI stock (1 mg/mL) and […] of the desired cDNA. For co-transfection, 2.5 μg of DNA of each plasmid was used. The mix was vortexed for 15 s and incubated at room temperature for 15–20 min. The transfection mix was added to the dish and gently mixed. Plates were incubated at 37 °C for 36–48 h before harvesting. For USP33 constructs, 5 μM Bortezomib (proteasome inhibitor) was added 4 hours before harvesting the cells.
FLAG fusion proteins were immunoprecipitated from HEK293 cells transfected with plasmids encoding the protein of interest using the anti-FLAG M2 affinity gel from Sigma-Aldrich. Cell pellets were lysed with 100–200 μL/per dish lysis buffer (Pierce RIPA buffer, 1X protease inhibitor (Roche), 50 unit/μL of Benzonase Nuclease) rotating at 4 °C for 30–45 min. […] The cell lysate was clarified by centrifugation at 17,000 x g, at 4 °C for 12 min, and the supernatant was transferred to a clean, pre-chilled low-binding Eppendorf tube. […] The IP samples were centrifuged at 6500 x g at 4 °C for 30 s. The supernatant containing the unbound proteins was transferred to a clean tube. The resin was washed three times with 500 μL of TBS, centrifuged at 6500 x g at 4 °C for 30 s. The bound FLAG fusion protein was eluted with 100 μL of 150 ng/μL 3X FLAG peptide (Sigma) in TBS and incubated in the cold room for 1 h or overnight. The tube was centrifuged at 6500 x g at 4 °C for 30 s; the eluted proteins were transferred to a clean tube. The eluted proteins were prepared for analysis by western blot or Mass Spectrometry.
Immunoprecipitation (IP) was carried out as described above; four technical replicates of each IP condition were performed, and the empty vector was used as a negative control. The eluted protein was processed following the Strap-micro protocol (Protifi). The IP elution containing 1–100 μg protein was 1:1 mixed with 2X lysis buffer (10% SDS, 100 mM TEAB pH 8.5). […] Samples were vortexed, mixed with 165 μL of 100 mM TEAB in 90% methanol, and passed through an S-Trap micro column at 4000 g for 30 s to trap the proteins. The column was washed with 150 μL of 100 mM TEAB in 90% methanol (at 4,000 x g for 30 seconds) three times. The S-Trap column was centrifuged again and transferred to a clean 2 mL tube for digestion with 20 μL of digestion buffer (1 μg trypsin per 10 μg sample in 50 mM TEAB), at 37 °C overnight in a thermomixer without shaking. The digested peptides were eluted with […] of 50 mM TEAB in water, […] of 0.2 % formic acid in water, and […] of 50 % acetonitrile in water, centrifuging at 4000 x g for 1 min each time. The three elutions were pooled in a low-binding tube, placed on dry ice until frozen, dried in a SpeedVac vacuum (Thermo Scientific), and proceeded with the LCMS analysis.
Eluted peptides were resuspended in water supplemented with 0.015% dodecyl maltoside and 0.1% formic acid and were injected on a Vanquish Neo UHPLC System operating in trap and elute mode coupled to an Orbitrap Astral Mass Spectrometer (Thermo Fisher Scientific). […] Eluted peptides were analyzed using data-independent acquisition mode on the mass spectrometer.
Peptides were searched against the Uniprot Swissprot Human database (released on 02/01/2023) supplemented with the USP20 and USP33 mutants using DiaNN (v1.9.0)[62] operating in library-free mode. Data filtering and statistical analysis were carried out in Python (v3.9.0) using the packages pandas, numpy, sklearn, scipy, rpy2, Plotnine, and Plotly and R (v4.4.3) using the package limma.
Protein groups identified with a single peptide or quantified in fewer than three replicates in at least 1 condition were filtered out. […]

USP20 DUSP2 domain [3] = molecular target: T3, USP20 DUSP2 domain; test: Peptide SPOT array, USP20 DUSP2; assay type: binding;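 also: GST-tagged domain probed overnight at 4 °C on peptides made on cellulose membranes, bound protein detected via HRP-coupled anti-GST antibody, spot intensity from image analysis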
Method: (§4) Peptides were synthesized on cellulose membranes with standard Fluoroenylmethylox-ycarbonyl (Fmoc) chemistry using a Multipep automated synthesizer at INTAVIS (Tübingen, Germany) or ordered from JPT (PepSpots). The membranes were activated with methanol for 5 min and washed three times for 5 min with TBST (50 mM Tris, 137 mM NaCl, 2.7 mM KCl, pH 8.0, 0.05% Tween-20). The membranes were incubated with blocking buffer (5% skim milk powder in TBST) for 2 h at room temperature while shaking. The membranes were incubated with the GST-tagged protein diluted at the desired concentration in blocking buffer and incubated overnight at 4 °C while shaking. The membrane was rinsed 3 times with TBST and incubated with HRP-conjugated anti-GST antibody (Cytiva, RPN1236; 1:3000 dilution) in blocking buffer for 1 h at 4 °C while shaking. […] The images were analyzed in Fiji (ImageJ2 version 2.9.0).

USP33 DUSP2 domain [4] = molecular target: T4, USP33 DUSP2 domain; test: Peptide SPOT array, USP33 DUSP2; assay type: binding; conditions: average normalised to the highest intensity (CCDC88B = 100)
Method: as §4

[5] = USP20_DUSP2, FP displacement by unlabelled peptide, read-out: KD
[6] = USP33_DUSP2, FP displacement by unlabelled peptide, read-out: KD
[7] = competitive FP: unlabeled peptide (N-acetylated, C-amidated) against protein with 10 nM FITC-labeled peptide, 50 mM phosphate pH 7.4, room temperature, technical triplicate, read-out: KD, USP20 DUSP2
[8] = competitive FP: unlabeled peptide (N-acetylated, C-amidated) against protein with 10 nM FITC-labeled peptide, 50 mM phosphate pH 7.4, room temperature, technical triplicate, read-out: KD, USP33 DUSP2

**Q.** For YTNSSGKMALNSPQPG [IRAG1], which Kd (USP20 zf-UBP domain) is on record?
**A.** 9.02 µM

**Q.** What about the Kd (USP33 zf-UBP domain) of the same molecule?
**A.** 7.86 µM

**Q.** Which results are given for YPFQPGRMALESQSPG [USP19]?
**A.** Kd (USP20 zf-UBP domain): ~162 µM; Kd (USP33 zf-UBP domain): 40.6 µM

**Q.** For Ac-YEKVKRRLDLDID-NH2 [CCP110], which Kd (USP20 zf-UBP domain) is on record?
**A.** ~505 µM

**Q.** And the Kd (USP33 zf-UBP domain)?
**A.** ~260 µM

**Q.** Which Kd (USP20 DUSP2 domain [1]; [5]) does the source give for Ac-PYIPMDDKFQLRSFDQLS-NH2 [HIF1A_D571K] here?
**A.** 85 µM

**Q.** What about the Kd (USP33 DUSP2 domain [2]; [6]) of the same molecule?
**A.** ~145 µM

**Q.** For VWA8, which log2_FC (FLAG-USP33; FLAG-USP33-ΔDUSP2 vs EV, comparison bh_2 Sample_Limma_ImpMedInt_USP33_DUSP2_domain/EV) is on record?
**A.** 2.1493

**Q.** What about the log2_FC (FLAG-USP33; FLAG-USP33-ΔUBP vs EV, comparison bh_2 Sample_Limma_ImpMedInt_USP33_UBP_domain/EV) of the same molecule?
**A.** 2.322

**Q.** What does the source list for PDVVDDFQLQHRHGPG [MFSD2B]?
**A.** Kd (USP20 DUSP2 domain [1]; [5]): 44.7 µM; Kd (USP33 DUSP2 domain [2]; [6]): 0.75 µM; Average (USP20 DUSP2 domain [3]; peptide SPOT array intensity minus background, sheet S5A, mean of 2 replicas): -6.828; Normalize to higher intensity (%) (USP20 DUSP2 domain [3]; peptide SPOT array, USP20 DUSP2, average normalised to the highest intensity (ARNTL2 = 100)): -3.824%; Normalize to peptide with higher intensity % (USP20 DUSP2 domain [3]; peptide SPOT array, sheet S5A, average normalized to the peptide with highest intensity (ARNTL2 = 100)): -3.824%; Normalize to higher intensity (%) (USP33 DUSP2 domain [4]): 51.523%

**Q.** What does the source list for PYIPMDGEDFQLSPICPE [HIF2A531-548]?
**A.** Kd (USP20 DUSP2 domain [1]; [7]): > 200 µM; Kd (USP33 DUSP2 domain [2]; [8]): > 1000 µM

**Q.** What does the source list for AQDSPIDFHLQSWMNN [CEP192]?
**A.** Kd (USP20 zf-UBP domain): 37.1 µM; Kd (USP33 zf-UBP domain): 14.1 µM

**Q.** With `CC[C@H](C)[C@H](NC(=O)[C@H](Cc1ccc(O)cc1)NC(=O)[C@@H]1CCCN1)C(=O)N1CCC[C@H]1C(=O)N[C@@H](CCSC)C(=O)N[C@@H](CC(=O)O)C(=O)N[C@@H](CC(=O)O)C(=O)N[C@@H](CC(=O)O)C(=O)N[C@@H](C)C(=O)N[C@@H](CCC(N)=O)C(=O)N[C@@H](CC(C)C)C(=O)N[C@@H](CCCNC(=N)N)C(=O)N[C@@H](CO)C(=O)N[C@@H](Cc1ccccc1)C(=O)N[C@@H](CC(=O)O)C(=O)N[C@@H](CCC(N)=O)C(=O)N[C@@H](CC(C)C)C(=O)N[C@@H](CO)C(=O)O` [F572A] as the molecule, how does the Kd (USP20 DUSP2 domain [1]; [7]) read?
**A.** > 600 µM

**Q.** And the Kd (USP33 DUSP2 domain [2]; [8])?
**A.** > 900 µM
